From patent US20230265091A1, “COMPOUNDS WHICH INHIBIT RNA POLYMERASE” (The Johns Hopkins University, priority 2020, published 2023) come the findings set out here.

Counter-ions that a name gives are not always drawn.

This experiment deals with RPA194 (RNA polymerase I, Pol I). Description: RPA194 destruction / Pol I inhibition, high-content imaging in A375 cells. Format: cell-based. The settings on record: A375 cells treated for 4 hours, top concentration 10 μM; anti-RPA194 immunofluorescence; pIC50 >= 5.02 deemed a Pol I inhibitor. As to the method:
Cell culture: A375 cells (CRL-1619, ATCC) were grown in DMEM (GTBCO) supplemented with […] fetal bovine serum (GIBCO) in 5% CO2 at 37° C.
Cell treatment and Imaging: 18 hours post-seeding in cell carrier black 384-well plates (PerkinElmer) at 15 000 cells/well, A375 cells were treated for 4 hours with a positive control or test compounds (9 serial semi-log dilutions, top concentration 10 μM). Upon treatment A375 cells were (i) fixed for 15 min at RT with 4% of paraformaldehyde, (ii) permeabilized for 20 min at RT with 0.1-0.5% of NP-40, (iii) incubated with primary antibodies at 4° C.: anti-RPA194 (1:1000-1:1250 dilution, sc-48385, Santa Cruz Biotechnology) and anti-gH2Ax (1:5000 dilution, 81299, Abcam or 1:4000, JBW302, Millipore) (iv) incubated for 1 h at RT with Hoechst (1:5000 dilution, H3570, ThermoFisher) and secondary antibodies: anti-mouse-AlexaFluor488 (1:2000 dilution, A11001, ThermoFisher) and anti-rabbit-AlexaFluor647 (1:2000 dilution, A21443, ThermoFisher) or goat anti-mouse AlexaFluor-594 (1:1000 dilution). Images were acquired on an Operetta CLS High-Content Analysis System (PerkinElmer) (40× objective; 9 fields/well) and processed using the Columbus Image Analysis System (PerkinElmer) or by using Molecular Devices ImageXpress Micro XLS High Content Imager and MetaXpress high-content acquisition and analysis software.
In the table below, (+) is associated with a pIC50 5.02 to 5.8; (++) with pIC50 5.8 to 6.3; and plus sing (+++) with a pIC50 above 6.3.
Consider `CN1CCOCC1CNC(=O)c1cccn2c(=O)c3cc4ccccc4cc3nc12` (centres unmarked) [Compound 108, N-((4-methylmorpholin-3-yl)methyl)-12-oxo-12H-benzo[g]pyrido[2,1-b]quinazoline-4-carboxamide hydrochloride], for which the “Activity Range (pIC50)” value is “+ ((+) is associated with a pIC50 5.02 to 5.8)”.
As for `O=C(NCCN1CCC(F)C1)c1cccn2c(=O)c3cc4ccccc4cc3nc12` (centres unmarked) [Compound 117, N-(2-(3-fluoropyrrolidin-1-yl)ethyl)-12-oxo-12H-benzo[g]pyrido[2,1-b]quinazoline-4-carboxamide hydrochloride], the entry is “+ ((+) is associated with a pIC50 5.02 to 5.8)”.
As for `CC(C)N1CCCCC1CNC(=O)c1cccn2c(=O)c3cc4ccccc4cc3nc12` (centres unmarked) [Compound 106, N-((1-isopropylpiperidin-2-yl)methyl)-12-oxo-12H-benzo[g]pyrido[2,1-b]quinazoline-4-carboxamide hydrochloride], the entry is “+ ((+) is associated with a pIC50 5.02 to 5.8)”; as for `CCN1CCCCC1CNC(=O)c1cccn2c(=O)c3cc4ccccc4cc3nc12` (centres unmarked) [Compound 105, N-((1-ethylpiperidin-2-yl)methyl)-12-oxo-12H-benzo[g]pyrido[2,1-b]quinazoline-4-carboxamide hydrochloride], “++ ((++) with pIC50 5.8 to 6.3)”; as for `O=C(NCCN1CC[C@H](O)C1)c1cccn2c(=O)c3cc4ccccc4cc3nc12` [Compound 109, (S)-N-(2-(3-hydroxypyrrolidin-1-yl)ethyl)-12-oxo-12H-benzo[g]pyrido[2,1-b]quinazoline-4-carboxamide hydrochloride], “++ ((++) with pIC50 5.8 to 6.3)”.
The value for `O=C(NCC1CCCCN1)c1cccn2c(=O)c3cc4ccccc4cc3nc12` (centres unmarked) [Compound 104, 12-oxo-N-(piperidin-2-ylmethyl)-12H-benzo[g]pyrido[2,1-b]quinazoline-4-carboxamide hydrochloride] was “++ ((++) with pIC50 5.8 to 6.3)”.
With `O=C(NCCN1CCC(O)(O)CC1)c1cccn2c(=O)c3cc4ccccc4cc3nc12` [Compound 113, N-(2-(4,4-dihydroxypiperidin-1-yl)ethyl)-12-oxo-12H-benzo[g]pyrido[2,1-b]quinazoline-4-carboxamide hydrochloride], the “Activity Range (pIC50)” value is reported as “++ ((++) with pIC50 5.8 to 6.3)”.
As for `O=C(NCCN1CCC(F)CC1)c1cccn2c(=O)c3cc4ccccc4cc3nc12` [Compound 116, N-(2-(4-fluoropiperidin-1-yl)ethyl)-12-oxo-12H-benzo[g]pyrido[2,1-b]quinazoline-4 carboxamide hydrochloride], the entry is “++ ((++) with pIC50 5.8 to 6.3)”; as for `O=C(NCCN1CCSCC1)c1cccn2c(=O)c3cc4ccccc4cc3nc12` [Compound 112, 12-oxo-N-(2-thiomorpholinoethyl)-12H-benzo[g]pyrido[2,1-b]quinazoline-4-carboxamide hydrochloride], “+ ((+) is associated with a pIC50 5.02 to 5.8)”; as for `O=C(NCC1CCCN1)c1cccn2c(=O)c3cc4ccccc4cc3nc12` (centres unmarked) [Compound 102, 12-oxo-N-(pyrrolidin-2-ylmethyl)-12H-benzo[g]pyrido[2,1-b]quinazoline-4-carboxamide trifluoroacetate], “++ ((++) with pIC50 5.8 to 6.3)”.
In the case of `O=C(NCCN1CC[C@@H](O)C1)c1cccn2c(=O)c3cc4ccccc4cc3nc12` [Compound 110, (R)-N-(2-(3-hydroxypyrrolidin-1-yl)ethyl)-12-oxo-12H-benzo[g]pyrido[2,1-b]quinazoline-4-carboxamide hydrochloride], the “Activity Range (pIC50)” value is “+++ ((+++) with a pIC50 above 6.3)”.
The value for `N#CC1CCN(CCNC(=O)c2cccn3c(=O)c4cc5ccccc5cc4nc23)CC1` [Compound 111, N-(2-(4-cyanopiperidine-1-yl)ethyl)-12-oxo-12H-benzo[g]pyrido[2,1-b]quinazoline-4-carboxamide hydrochloride] was “+ ((+) is associated with a pIC50 5.02 to 5.8)”; that for `CN1CCCC1CNC(=O)c1cccn2c(=O)c3cc4ccccc4cc3nc12` (centres unmarked) [Compound 107, N-((1-methylpyrrolidin-2-yl)methyl)-12-oxo-12H-benzo[g]pyrido[2,1-b]quinazoline-4-carboxamide hydrochloride] was “+ ((+) is associated with a pIC50 5.02 to 5.8)”; that for `COC(=O)N1CCN(CCNC(=O)c2cccn3c(=O)c4cc5ccccc5cc4nc23)CC1` [Compound 115, methyl 4-(2-(12-oxo-12H-benzo[g]pyrido[2,1-b]quinazoline-4-carboxamido)ethyl)piperazine-1-carboxylate hydrochloride] was “+ ((+) is associated with a pIC50 5.02 to 5.8)”.
As for `CC(NC(=O)c1cccn2c(=O)c3cc4ccccc4cc3nc12)C1CCCCN1` (centres unmarked) [Compound 103, 12-oxo-N-(1-(piperidin-2-yl)ethyl)-12H-benzo[g]pyrido[2,1-b]quinazoline-4-carboxamide hydrochloride], the entry is “++ ((++) with pIC50 5.8 to 6.3)”.
The value for `CN(CCC#N)CCNC(=O)c1cccn2c(=O)c3cc4ccccc4cc3nc12` [Compound 114, N-(2-((2-cyanoethyl)(methyl)amino)ethyl)-12-oxo-12H-benzo[g]pyrido[2,1-b]quinazoline-4-carboxamide hydrochloride] was “+ ((+) is associated with a pIC50 5.02 to 5.8)”; that for `O=C(NCC1CCCC(CO)N1)c1cccn2c(=O)c3cc4ccccc4cc3nc12` (centres unmarked) [Compound 101, N-((6-(hydroxymethyl)piperidin-2-yl)methyl)-12-oxo-12H-benzo[g]pyrido[2,1-b]quinazoline-4-carboxamide hydrochloride] was “++ ((++) with pIC50 5.8 to 6.3)”.
